According to patent US8492103B2 (priority 2011, dated 2013):
“Also recorded” adds a separate entry of the source. Like-named read-outs stand apart in the source and are kept apart here.

Tests used:
[1] = system: Ehrlichia antibody from dogs infected with E. ewingii; format: binding; settings: ELISA; dog sera
[2] = system: Ehrlichia antibody in human serum; format: binding; settings: ELISA; humans infected with E. chaffeensis
Protocol: ELISA plates (Nunc, Maxisorp) were coated with P28-1 and incubated with sera of humans (infected with E. chaffeensis) (1:100) (1 hour-RT) followed by incubation with goat anti-human AP (1:1500).

[3] = system: IFN-γ-producing CD4+ T cells in the spleen; assay: Flow cytometry of peptide-specific IFN-γ-producing memory CD4+ T cells in splenocytes of E. muris-infected mice; format: cell-based; settings: day 45 after infection; splenocytes stimulated in vitro with the peptide for 18 h
Protocol: Flow cytometry was used to determine if Ehrlichia Hsp6043-63 and P28-19 specific memory T cells are induced during E. muris infection.
The frequencies of antigen specific IFN-γ-producing T cells in the spleens were determined by flow cytometric analysis. […]
After blocking Fc receptors with anti-Fc receptor mAbs (BD PharMingen, San Diego, Calif.) in FACS buffer (Dulbecco's PBS without Mg^2+ or Ca^2+ containing 1% fetal calf serum and 0.09% sodium azide) at 4° C. for 15 minutes, cells were labeled with fluorochrome-conjugated mAbs (BD Biosciences Pharmingen, San Diego, Calif.) specific for mouse CD3 (APC; clone 17A2), and CD4 (FITC; clone RM4-5), and CD8 (PerCP-Cy 5.5; clone 53-6.7). […] Data were analyzed using FCS Express software (De Novo Software, Los Angeles, Calif.). Dot plots were gated on CD3+ T cells and the frequencies and absolute numbers of antigen-specific IFN-γ-producing CD4+ T cells in the spleens were determined after subtracting the background staining of unstimulated cells in wells containing medium only.

E. muris = assay: Immunization and Ehrlichia muris challenge, ehrlichial load by quantitative real-time PCR; format: in vivo, C57BL/6 mice; settings: for protection against E. muris challenge as determined by bacterial load (quantitative real time-PCR): immunized mice; for bacterial load in vaccinated mice compared to unvaccinated controls: spleen and liver, days 7 and 14 after bacterial infection; for protection against Ehrlichia infection (overall statement): vaccinated mice challenged with E. muris
Protocol: Since the P28-1955-75 and Ehrlichia Hsp6043-63 epitope peptides induced antibodies, the inventors reasoned that they also could provide protection against Ehrlichia thereby functioning as potential vaccine candidates. […] The spleen and liver were collected at different days after bacterial challenge and the bacterial copy number determined by quantitative real time PCR.
(§1) Mice were immunized i.p., with two doses of 50 micrograms (0.02 μM) of each P28-1955-75 peptide or Ehrlichia Hsp6043-63 peptides conjugated to KLH 15 days apart (the first immunization with complete Freund's adjuvant and the second immunization with incomplete Freund's adjuvant) (3 mice per group). Thirty days after the first immunization mice were challenged intraperitoneally (i.p.) with a high dose of E. muris (˜1×10^4 bacterial genomes) and observed daily. Controls included unchallenged naive mice as well as unvaccinated mice injected with E. muris alone. Mice were sacrificed on days 7, 14 and 21 after Ehrlichia challenge, and spleen and liver were harvested and sera collected. The ehrlichial load in spleen and liver was determined by quantitative RT-PCR. Sera were assayed for determination of antibody titers.
The bacterial burdens in the organs were determined by quantitative real-time PCR. The Ehrlichia-specific dsb gene, which encodes a disulfide bond-forming protein (GenBank accession #AY236484 and AY236485), was selected as the target gene for amplification of E. muris. The sequences of the primers and probes and thermal cycle conditions were described previously (Stevenson et al. (2006) Infect Immun 74:4856-4864). PCR analyses were considered negative for ehrlichial DNA if the critical threshold values (Ct) exceeded 40 cycles. Expression of the ehrlichial load was normalized relative to the total DNA. Each sample was run in duplicate.

[4] = system: antibody isotypes IgG1, IgG2c, IgG2b, IgG3, IgM; assay: Measurement of antibody subclasses (isotypes) by ELISA in vaccinated mice after challenge; format: in vivo, C57BL/6 mice; settings: day 14 post challenge
Protocol: as §1
ELISA was performed to measure the concentration of E. muris specific IgG subclass antibodies as described previously [Ismail et al. (2004) J Immunol 172:1786-1800; McBride et al. (2003) Infect Immun 71: 2516-2524). Briefly, the ELISA plates were coated with 50 μl of peptide (Ehrlichia Hsp6043-63) or recombinant P28-19 protein at a concentration of 4 μg/ml in PBS. Serum samples were diluted 1:100, and 100 μl of each sample was added to peptide-coated wells and incubated at 25° C. for 1 h. […] When peptides conjugated to KLH were used as a probe in ELISA, KLH was used as control and the results subtracted from positive values.

[5] = system: antibodies from mice infected with Rickettsia; format: binding; settings: ELISA; R. conorii, R. australis, R. akari
[6] = system: antibodies from mice infected with Orientia; format: binding; settings: ELISA; O. tsutsugamushi
[7] = system: antibodies from dogs infected with E. chaffeensis; format: binding; settings: ELISA, dog sera
[8] = system: antibodies from dogs infected with E. canis; format: binding; settings: ELISA, dog sera
[9] = system: Ehrlichia-specific IgG antibody; assay: Antibody response by ELISA in vaccinated mice after E. muris challenge; format: in vivo, C57BL/6 mice; settings: for antibody levels in vaccinated mice, day 14 compared to day 7: after E. muris challenge; for IgG antibody response after E. muris challenge, vaccinated compared to unvaccinated E. muris-infected mice: blood on days 7 and 14
Protocol: ELISA plates (Nunc, Maxisorp) were coated with P28-1 and incubated with sera of mice (1:100) vaccinated with Ehrlichia Hsp60 and challenged with E. muris. Following incubation with mice sera they were incubated with goat anti-mouse AP (1:500).
Immunization with vaccines stimulates the immune system to produce a robust antibody response that can provide protection against pathogens. To determine the antibody responses against the Ehrlichia Hsp6043-63 peptide vaccine, blood was collected from vaccinated mice on days 7 and 14 and performed ELISA. […] However, there was no difference between the antibody levels in vaccinated mice between days 7 and 14. The Ehrlichia Hsp6043-63-specific antibody levels in infected unvaccinated mice were highest on day 14 compared to day 7 (FIG. 6A). To determine the antibody responses against the P28-1955-75 peptide vaccine, we collected blood from immunized mice on days 7 and 14 and subjected the samples to ELISA.
as §1

“akeeknataktfglkq (AKEEKNATAKTFGLKQ; listed as Ehrlichia muris) [P28-1955-75 peptide, peptide of E. muris outer membrane protein P28-19, amino acids 55-75]” was tested, and the “detection of Ehrlichia antibodies of dogs infected with E. ewingii” value [1] was “very sensitive”, the “detection of Ehrlichia antibody in human serum” value [2] was “sensitive” and the “peptide-specific IFN-γ-producing CD4+ T cells in spleen of E. muris-infected mice compared to naive uninfected mice” value [3] was “significantly higher frequencies and absolute numbers; also recorded: higher frequency”. The “protection against E. muris challenge as determined by bacterial load (quantitative real time-PCR)” value (E. muris; days 7 and 14 after E. muris challenge) was “protected”, the “bacterial load in vaccinated mice compared to unvaccinated controls” value (E. muris) was “lower bacterial load” and the “protection against Ehrlichia infection (overall statement)” value (E. muris) was “provided protection”. The “antibody isotype levels in vaccinated compared to unvaccinated mice after bacterial challenge” value [4] was “higher levels of IgG1, IgG2b, IgG2c, and IgG3”, the “antibody isotype levels in vaccinated compared to unvaccinated mice after bacterial challenge” value ([4]; listed as P28-1955-75) was “higher levels of IgG1, IgG2b, IgG3 and IgM” and the “cross-reaction with antibodies from mice infected with Rickettsia” value [5] was “did not react”. The “cross-reaction with antibodies from mice infected with Orientia” value [6] was “did not react”, the “reaction with / detection of antibodies from dogs infected with E. chaffeensis” value (shortened to “reaction with / detection … with E. chaffeensis”) [7] was “reacted” and the “reaction with / detection … with E. chaffeensis” value ([7]; listed as P28 peptide) was “very sensitive”. The “reaction with / detection of antibodies from dogs infected with E. canis” value (shortened to “reaction with / detection … with E. canis”) [8] was “reacted”, the “reaction with / detection … with E. canis” value ([8]; listed as P28 peptide) was “very sensitive” and the “antibody levels in vaccinated mice, day 14 compared to day 7” value [9] was “higher on day 14”. The “IgG antibody response after E. muris challenge, vaccinated compared to unvaccinated E. muris-infected mice” value [9] was “higher IgG antibody levels”.
For “ygapeitkdgykviksikped (YGAPEITKDGYKVIKSIKPED; listed as Ehrlichia muris) [Ehrlichia Hsp6043-63 peptide]”, the “peptide-specific IFN-γ-producing CD4+ T cells in spleen of E. muris-infected mice compared to naive uninfected mice” value [3] was “significantly higher frequencies and absolute numbers; also recorded: higher frequency”, the “protection against E. muris challenge as determined by bacterial load (quantitative real time-PCR)” value (E. muris; day 14 after E. muris challenge) was “protected” and the “bacterial load in vaccinated mice compared to unvaccinated controls” value (E. muris) was “lower bacterial load”. For the same substance, the “protection against Ehrlichia infection (overall statement)” value (E. muris) was “provided protection”, the “antibody isotype levels in vaccinated compared to unvaccinated mice after bacterial challenge” value [4] was “higher levels of IgG1, IgG2c, IgG2b, and IgG3” and the “antibody isotype levels in vaccinated compared to unvaccinated mice after bacterial challenge” value ([4]; listed as Ehrlichia Hsp6043-63) was “higher levels of IgG1, IgG2c, IgG2b, IgG3 and IgM”. For the same substance, the “cross-reaction with antibodies from mice infected with Rickettsia” value [5] was “did not react”, the “cross-reaction with antibodies from mice infected with Orientia” value [6] was “did not react” and the “reaction with / detection … with E. chaffeensis” value [7] was “reacted”. The “reaction with / detection … with E. canis” value [8] was “reacted”, the “antibody levels in vaccinated mice, day 14 compared to day 7” value [9] was “no difference” and the “IgG antibody response after E. muris challenge, vaccinated compared to unvaccinated E. muris-infected mice” value [9] was “higher IgG antibody levels”.
